The results in this text go back to patent US12545650B2, “Bisanthracene derivatives having solubilizing substituent, and organic electroluminescence device using same” (LG Chem, Ltd., priority 2020, dated 2026).

This data set can be described thus: Solubility test of PAPAP derivatives in cyclohexanone with thermal stirring. As to conditions: 10 mg compound in 1 mL cyclohexanone, thermal stirring at about 100° C. Type of data set: physicochemical. The procedure:
Solubility tests were performed on PAPAP-1 and PAPAP-0 obtained from the Synthetic Example using cyclohexanone as a solvent. 10 mg of each of PAPAP-1 and PAPAP-0 was measured, 1 mL of cyclohexanone was added thereto, and thermal stirring was performed at a temperature of about 100° C.
The solubilities of PAPAP-12 and PAPAP-1 were tested using cyclohexanone as a solvent. 10 mg of each of PAPAP-12 and PAPAP-1 was measured, 1 mL of cyclohexanone was added thereto, and thermal stirring was performed at a temperature of about 100° C.
For `COc1ccc(-c2c3ccccc3c(-c3ccc(-c4c5ccccc5c(-c5ccc(C#N)cc5)c5ccccc45)cc3)c3ccccc23)cc1` [PAPAP-0, reference compound], the solubility in cyclohexanone result is recorded as “insoluble”.
As for `c1ccc(-c2ccccc2-c2c3ccccc3c(-c3ccc(-c4c5ccccc5c(-c5ccc(N(c6ccccc6)c6ccccc6)cc5)c5ccccc45)cc3)c3ccccc23)cc1` [PAPAP-1], the solubility in cyclohexanone result was “soluble”.
For the molecule `c1ccc(-c2ccccc2-c2c3ccccc3c(-c3ccc(-c4c5ccccc5c(-c5cccc(N(c6ccccc6)c6ccccc6)c5)c5ccccc45)cc3)c3ccccc23)cc1` [PAPAP-12], the solubility in cyclohexanone entry is listed as “soluble”.
